In patent publication US20240368181A1, “QUINOXALINE DERIVATIVES AND USES THEREOF” (Black Diamond Therapeutics, Inc., priority 2021, published 2024) one finds IC50 data, which are given here for 35 molecules.

Each structure is given as a SMILES string. A value given as a limit tells only on which side of the number the result lay.

Assay type in all cases: cell-based
For experiment [1], the system named is SNU-16 (FGFR2-amplification) cells. Briefly: cell proliferation assay (CellTiterGlo), SNU-16 cells. The conditions noted are these: Homo sapiens, 72 hours. An outline of the steps:
(§1)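 Luminescent ATP read-out (CellTiterGlo) after exposure to compound at varying concentrations or DMSO vehicle. IC50 derived with vehicle-treated wells set as viable cells.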
A general note: ATP-based viability assays read luminescence as a measure of living cells.

The test system of experiment [2] is UM-UC-14 (FGFR3-S249C) cells. Briefly: cell proliferation assay (CellTiterGlo), UM-UC-14 cells. The conditions noted are these: UMUC14, 72 h. An outline of the steps:
as §1

The subject of experiment [3] is DMS-114 (FGFR1 overexpression) cells. The experiment in a line: cell proliferation assay (CellTiterGlo), DMS-114 cells. The note with it: Homo sapiens, DMS-114, 72 h. An outline of the steps: as §1
In experiment [4] the test system is RT-112 (FGFR3-Tacc3 fusion) cells. Briefly: cell proliferation assay (CellTiterGlo), RT-112 cells. The conditions noted are these: Homo sapiens, RT-112, RT112 cells, 72 hours. An outline of the steps: as §1

By IC50 is commonly meant the concentration at which inhibition is half-maximal. Read a high IC50 as weaker potency. Regarding `Cc1nc2ccc(Oc3ccc4ncc(-c5cnn([C@H]6C[C@H](N7C[C@H]8C[C@@H]7CO8)C6)c5)nc4c3Cl)cc2[nH]1` [Compound 206], the IC50 in experiment [1] lay in the range of 20 to 100 nM; in experiment [2], 20 to 100 nM; in experiment [3], 100 to 400 nM; in experiment [4], 20 to 100 nM.

On to `CC(=O)N1CC=C(c2c(Oc3ccc4nc(C)[nH]c4c3)ccc3ncc(-c4cnn(CC5CC(F)(F)C5)c4)nc23)C1` [Compound 78], for which the IC50 was 100 to 400 nM in experiment [1], 100 to 400 nM in experiment [2], not below 400 nM in experiment [3] and 100 to 400 nM in experiment [4].

As for `Cc1nc2ccc(Oc3ccc4ncc(-c5cnn(C6CN(CC(=O)N7CC(F)(F)C7)C6)c5)nc4c3Cl)cc2[nH]1` [Compound 226], the IC50 in experiment [1] was 100 to 400 nM; in experiment [2] it was 20 to 100 nM; in experiment [3] it was not below 400 nM; in experiment [4], 20 to 100 nM.

Take `CNC(=O)N1CC2CC1CC2Cn1cc(-c2cnc3ccc(Oc4ccc5nc(C)[nH]c5c4)c(Cl)c3n2)cn1` (centres unmarked) [Compound 313]: the IC50 in experiment [1] was 20 to 100 nM; in experiment [2] it was 20 to 100 nM; in experiment [3], not below 400 nM; in experiment [4], 20 to 100 nM.

In the case of `Cc1nc2ccc(Oc3ccc4ncc(-c5cnn(CCO)c5)nc4c3Cl)c(F)c2[nH]1` [Compound 268], the IC50 in experiment [1] was 20 to 100 nM; in experiment [2] it was 20 to 100 nM; in experiment [3], not below 400 nM; in experiment [4], 20 to 100 nM.

On to `Cc1nc2ccc(Oc3ccc4ncc(-c5cnn(C6CN(C7CN(C)C7)C6)c5)nc4c3Cl)cc2[nH]1` [Compound 230], for which the IC50 in experiment [1] was 20 to 100 nM; in experiment [2], 20 to 100 nM; in experiment [3], not below 400 nM; in experiment [4] it was 20 to 100 nM.

As to `Cc1nc2ccc(Oc3ccc4ncc(-c5cnn(CCC6CCN(C)CC6)c5)nc4c3Cl)cc2[nH]1` [Compound 305], the IC50 in experiment [1] was less than 20 nM; in experiment [2], less than 20 nM; in experiment [3], 100 to 400 nM; in experiment [4], less than 20 nM.

Turning to `Cc1nc2ccc(Oc3ccc4ncc(-c5cnn(C6CN(C(=O)N7CCC7)C6)c5)nc4c3Cl)cc2[nH]1` [Compound 185], the half-inhibitory concentration (IC50) in experiment [1] was 20 to 100 nM; in experiment [2], 20 to 100 nM; in experiment [3] it was not below 400 nM; in experiment [4] it was 20 to 100 nM.

Take `Cc1nc2ccc(Oc3ccc4ncc(-c5cnn(C6CCCN(C)C6)c5)nc4c3Cl)cc2[nH]1` (centres unmarked) [Compound 378]: the IC50 is 20 to 100 nM in experiment [1], 20 to 100 nM in experiment [2], not below 400 nM in experiment [3] and 20 to 100 nM in experiment [4].

Take `Cc1nc2ccc(Oc3ccc4ncc(-c5cnn([C@H](C)C6CC(F)(F)C6)c5)nc4c3Cl)c(F)c2[nH]1` [Compound 109]: the IC50 in experiment [1] is less than 20 nM; in experiment [2], less than 20 nM; in experiment [3] it was 100 to 400 nM; in experiment [4] it was less than 20 nM.

For the molecule `Cc1nc2ccc(Oc3ccc4ncc(-c5cnn(CC6CC(F)(F)C6)c5C)nc4c3Cl)cc2[nH]1` [Compound 275], the IC50 in experiment [1] was not below 400 nM; in experiment [2], 100 to 400 nM; in experiment [3] it was not below 400 nM; in experiment [4] it was not below 400 nM.

Take `Cc1nc2ccc(Oc3ccc4ncc(-c5cnn(C6CC(N7CC(F)(F)C7)C6)c5)nc4c3Cl)cc2[nH]1` (centres unmarked) [Compound 265]: the half-inhibitory concentration (IC50) in experiment [1] is 20 to 100 nM; in experiment [2] it was 20 to 100 nM; in experiment [3] it was 100 to 400 nM; in experiment [4] it was 20 to 100 nM.

For `Cc1nc2ccc(Oc3ccc4ncc(-c5cnn(CC6CC(F)(F)C6)c5)nc4c3C)cc2[nH]1` [Compound 302], the IC50 in experiment [1] was 100 to 400 nM; in experiment [2], 100 to 400 nM; in experiment [3] it was not below 400 nM; in experiment [4], 100 to 400 nM.

For `Cc1nc2ccc(Oc3ccc4ncc(-c5cnn(CC6CC(C)(O)C6)c5)nc4c3Cl)cc2[nH]1` (centres unmarked) [Compound 257], the IC50 in experiment [1] is less than 20 nM; in experiment [2] it was 20 to 100 nM; in experiment [3], 100 to 400 nM; in experiment [4], less than 20 nM.

In the case of `Cc1nc2ccc(Oc3ccc4ncc(-c5cnn([C@H]6C[C@H](N7CC(O)C7)C6)c5)nc4c3Cl)cc2[nH]1` [Compound 214], the IC50 in experiment [1] fell in the range of 20 to 100 nM; in experiment [2], 20 to 100 nM; in experiment [3], 100 to 400 nM; in experiment [4], 20 to 100 nM.

`Cc1nc2ccc(Oc3ccc4ncc(-c5cnn(CC6(O)CC6)c5)nc4c3C3=CCOC3)c(F)c2[nH]1` [Compound 77]: the IC50 in experiment [1] is less than 20 nM; in experiment [2] it was 20 to 100 nM; in experiment [3], 20 to 100 nM; in experiment [4], less than 20 nM.

For the molecule `CNC(=O)CN1CC(Cn2cc(-c3cnc4ccc(Oc5ccc6nc(C)[nH]c6c5)c(Cl)c4n3)cn2)C1` [Compound 315], the IC50 in experiment [1] was 20 to 100 nM; in experiment [2] it was 20 to 100 nM; in experiment [3], not below 400 nM; in experiment [4], 20 to 100 nM.

In the case of `CN=S(C)(=O)N1CCC(n2cc(-c3cnc4ccc(Oc5ccc6nc(C)[nH]c6c5)c(Cl)c4n3)cn2)CC1` (centres unmarked) [Compound 86], the IC50 was less than 20 nM in experiment [1], less than 20 nM in experiment [2], 100 to 400 nM in experiment [3] and less than 20 nM in experiment [4].

Regarding `Cc1nc2ccc(Oc3ccc4ncc(-c5cnn(CC6CCNCC6F)c5)nc4c3Cl)cc2[nH]1` (centres unmarked) [Compound 375], the IC50 in experiment [1] was 20 to 100 nM; in experiment [2] it was 20 to 100 nM; in experiment [3], 100 to 400 nM; in experiment [4] it was less than 20 nM.

Turning to `Cc1nc2ccc(Oc3ccc4ncc(-c5cnn(CC6C7COCC76)c5)nc4c3Cl)cc2[nH]1` (centres unmarked) [Compound 365], the concentration for half-maximal inhibition (IC50) in experiment [1] was 20 to 100 nM; in experiment [2], 20 to 100 nM; in experiment [3] it was not below 400 nM; in experiment [4], 20 to 100 nM.

Regarding `Clc1c(Oc2ccn3cncc3c2)ccc2ncc(-c3cnn(CC4CCN(C5COC5)CC4)c3)nc12` [Compound 312], the IC50 in experiment [1], in experiment [2], in experiment [3] and in experiment [4] was not below 400 nM throughout.

With `Cc1nc2ccc(Oc3ccc4ncc(-c5cnn([C@H]6CCN(C7COC7)C[C@@H]6F)c5)nc4c3Cl)cc2[nH]1` [Compound 360], the IC50 in experiment [1] is 20 to 100 nM; in experiment [2], 20 to 100 nM; in experiment [3], not below 400 nM; in experiment [4], 20 to 100 nM.

Regarding `Cc1nc2ccc(Oc3ccc4ncc(-c5cnn(CCN6CCCC6)c5)nc4c3Cl)cc2[nH]1` [Compound 381], the IC50 in experiment [1] is 20 to 100 nM; in experiment [2], 20 to 100 nM; in experiment [3] it was not below 400 nM; in experiment [4], 20 to 100 nM.

`Cc1nc2ccc(Oc3ccc4ncc(-c5cnn(C6CC7CC6CN7C6COC6)c5)nc4c3Cl)cc2[nH]1` (centres unmarked) [Compound 331]: the IC50 was less than 20 nM in experiment [1], 20 to 100 nM in experiment [2], not below 400 nM in experiment [3] and less than 20 nM in experiment [4].

In the case of `Cc1nc2cc(Oc3ccc4ncc(-c5cnn(CC6CC(F)(F)C6)c5)nc4c3Cl)cc(F)c2[nH]1` [Compound 266], the IC50 in experiment [1] is 100 to 400 nM; in experiment [2], 100 to 400 nM; in experiment [3] it was not below 400 nM; in experiment [4] it was 100 to 400 nM.

Consider `Cc1nc2ccc(Oc3ccc4ncc(-c5cnn(CC6CN(CC(=O)N7CCC7)C6)c5)nc4c3Cl)cc2[nH]1` [Compound 320], for which the IC50 in experiment [1] was 20 to 100 nM; in experiment [2] it was 100 to 400 nM; in experiment [3], not below 400 nM; in experiment [4] it was 20 to 100 nM.

For the molecule `CCC(=O)N1CCC(CCn2cc(-c3cnc4ccc(Oc5ccc6nc(C)[nH]c6c5)c(Cl)c4n3)cn2)CC1` [Compound 300], the IC50 in experiment [1] was 20 to 100 nM; in experiment [2] it was less than 20 nM; in experiment [3], not below 400 nM; in experiment [4], 20 to 100 nM.

Take `Cc1nc2ccc(Oc3ccc4ncc(-c5cnn(C6CC7CC6CN7C(C)C)c5)nc4c3Cl)cc2[nH]1` (centres unmarked) [Compound 342]: the IC50 in experiment [1] is 20 to 100 nM; in experiment [2] it was 20 to 100 nM; in experiment [3], not below 400 nM; in experiment [4] it was 20 to 100 nM.

With `Cc1nc2cc(Oc3ccc4ncc(-c5cnn(CC(=O)N6CCC(F)(F)CC6)c5)nc4c3Cl)ccc2[nH]1` [Compound 332], the IC50 was 20 to 100 nM in experiment [1], 20 to 100 nM in experiment [2], not below 400 nM in experiment [3] and 20 to 100 nM in experiment [4].

On to `Cc1nc2ccc(Oc3ccc4ncc(-c5cnn(C6CCC(F)(F)C6)c5)nc4c3Cl)cc2[nH]1` (centres unmarked) [Compound 211], for which the IC50 is 100 to 400 nM in experiment [1], 100 to 400 nM in experiment [2], not below 400 nM in experiment [3] and 100 to 400 nM in experiment [4].

With `Cc1nc2ccc(Oc3ccc4ncc(-c5cnn(CC6CC(F)(F)C6)c5)nc4c3C3=CC(C)(C)OC3(C)C)cc2[nH]1` [Compound 90], the IC50 in experiment [1] fell in the range of 20 to 100 nM; in experiment [2] it was 20 to 100 nM; in experiment [3], 100 to 400 nM; in experiment [4] it was 20 to 100 nM.

Regarding `Cc1nc2ccc(Oc3ccc4ncc(-c5cnn(Cc6ncc7n6CCOC7)c5)nc4c3Cl)c(F)c2[nH]1` [Compound 145], the IC50 in experiment [1] is 20 to 100 nM; in experiment [2] it was not below 400 nM; in experiment [3] it was not below 400 nM; in experiment [4], 100 to 400 nM.

As to `Cc1nc2ccc(Oc3ccc4ncc(-c5cnn(CC6CCN(C)CC6)c5)nc4c3C#N)cc2[nH]1` [Compound 382], the IC50 in experiment [1] lay within 20 to 100 nM; in experiment [2], 20 to 100 nM; in experiment [3] it was 100 to 400 nM; in experiment [4], 20 to 100 nM.

In the case of `Cc1nc2ccc(Oc3ccc4ncc(-c5cnn(CC6OCCCO6)c5)nc4c3Cl)cc2[nH]1` [Compound 389], the IC50 is 20 to 100 nM in experiment [1], 100 to 400 nM in experiment [2], not below 400 nM in experiment [3] and 20 to 100 nM in experiment [4].

Take `Cc1nc2ccc(Oc3ccc4ncc(-c5cnn(CC6CC7CC6CN7C)c5)nc4c3Cl)cc2[nH]1` (centres unmarked) [Compound 379]: the IC50 lay in the range of 20 to 100 nM in experiment [1], 20 to 100 nM in experiment [2], 100 to 400 nM in experiment [3] and 20 to 100 nM in experiment [4].
